Where two headings read alike, the source gives them in different places.
Tests used:
[1] = system: Trypanosoma cruzi amastigotes (Tulahuen strain expressing Lac-Z) cultured in 3T3 fibroblast cells; assay: microbe, parasite or virus in culture; format: cell-based; settings: Trypanosoma cruzi, TULAHUEN, Fibroblast, T. cruzi amastigotes in 3T3 fibroblast cells, read-out: T cruzi EC50
[2] = system: Leishmania donovani axenic amastigote parasites; assay: Leishmania donovani axenic amastigote proliferation assay (Cell TiterGlo luminescence, 2 day incubation); format: cell-based; settings: Leishmania donovani, read-out: L. donovani amastigotes EC50
[3] = system: Trypanosoma brucei Lister 427 strain, bloodstream form; assay: Assay for proliferation of kinetoplastid parasite Trypanosoma brucei (Cell Titer Glo, 48 hours); format: cell-based; settings: Trypanosoma brucei, read-out: T. brucei EC50
Procedure, shortened: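 Bloodstream-form T. brucei Lister 427 in HMI-9 medium was exposed to compound (DMSO vehicle) for 48 hours at 37° C, 5% CO2. Parasite growth was read as ATP by CellTiter-Glo luminescence, with EC50 calculated from percent inhibition.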

[4] = system: L. donovani HU3 strain in mouse peritoneal macrophages; assay: Assay for proliferation of Leishmania parasites in infected mouse peritoneal macrophages (SybrGreen staining, high-content imaging, 5 days); format: cell-based, Leishmania donovani; settings: Leishmania donovani, Peritoneal macrophage, L. donovani in mouse peritoneal macrophages, read-out: L. donovani Macrophage EC50
[5] = axenic amastigotes, inhibition of proliferation
[6] = T. brucei Lister 427 bloodstream form, inhibition of proliferation
[7] = T. brucei Lister 427 bloodstream form

Compound	EC50 ([1]; inhibition of proliferation) [nM]	EC50 [2, 5] [nM]	EC50 [3, 6] [nM]	EC50 ([4]; inhibition of proliferation) [nM]	EC50 [1] [nM]	EC50 ([2]; L. donovani axenic amastigotes) [nM]	EC50 [3, 7] [nM]	EC50 [4] [nM]	EC50 [3] [nM]
COCC(=O)Nc1cnc2nc(-c3cc(NC(=O)N4CCCC4)ccc3F)cn2c1 [Compound 139]	3740	450	128	6820					
Cc1nc(C)c(C(=O)Nc2ccc(F)c(-c3cn4cc(-c5ccc(N6CCOCC6)cc5)cnc4n3)c2)o1 [Compound 383]					137	146	331	521	
Cc1nc(C)c(C(=O)Nc2ccc(F)c(-c3cn4cc(-c5ccnn5C(C)C)cnc4n3)c2)o1 [Compound 390]					75	53	54	174	
Cc1nc(C)c(C(=O)Nc2ccc(F)c(-c3cn4cc(NC(=O)C5CNCCCO5)cnc4n3)c2)o1 (stereo not drawn) [Compound 182]	> 20000	> 25000	10800	> 50000					
O=C(Nc1ccc(F)c(-c2cn3cc(NCCC(F)(F)F)cnc3n2)c1)N1CCCC1 [Compound 478]					5520	4720	533	> 16400	
Cc1nc(C)c(C(=O)Nc2ccc(F)c(-c3cn4cc([Si](C)(C)C)cnc4n3)c2)o1 [Compound 549, N-(4-fluoro-3-(6-(trimethylsilyl)imidazo[1,2-a]pyrimidin-2-yl)phenyl)-2,4-dimethyloxazole-5-carboxamide]					63	133	117	448	
CC(C)OC(=O)Nc1cnc2nc(-c3cc(NC(=O)c4ccn(C)n4)ccc3F)cn2c1 [Compound 98]	549	645	503	3340					
Cc1nc(C)c(C(=O)Nc2ccc(F)c(-c3cn4cc(-c5cnccn5)cnc4n3)c2)o1 [Compound 251]	61	35	45	85					
CC(C)OC(=O)Nc1cnc2nc(-c3cc(NC4=NCCO4)ccc3F)cn2c1 [Compound 499]					9420	> 25000	4670	8260	
CNc1ccc(-c2cnc3nc(-c4cc(NC(=O)c5oc(C)nc5C)ccc4F)cn3c2)cc1 [Compound 392]					48	103	55	152	
Cc1nc(C)c(C(=O)Nc2ccc(F)c(-c3cn4cc(-c5ccncc5F)cnc4n3)c2)o1 [Compound 444]					50	86	25	183	
COC(=O)Nc1cnc2nc(-c3cc(NC(=O)c4oc(C)nc4C)ccc3F)cn2c1 [Compound 310]	1240	243	293	564					
Cc1cncc(-c2cnc3nc(-c4cc(NC(=O)c5oc(C)nc5C)ccc4F)cn3c2)c1 [Compound 440]					238	119	315	200	
Cc1nc(C)c(C(=O)Nc2ccc(F)c(-c3cn4cc(NC(=O)c5oc(C)nc5C)cnc4n3)c2)o1 [Compound 150]	> 20000	532	506	43800					
O=C(Nc1ccc(F)c(-c2cn3cc(Cl)cnc3n2)c1)N1CC(F)(F)C1 [Compound 235]	433	215	165	821					
CC(C)OC(=O)Nc1cnc2nc(-c3cc(NC(=O)N(C)CC(F)(F)F)ccc3F)cn2c1 [Compound 222]	419	109	67	424					
CC(C)Nc1cnc2nc(-c3cc(NC(=O)N4CCCC4)ccc3F)cn2c1 [Compound 476]					152	153	42	358	
Cc1nc(C)c(C(=O)Nc2ccc(F)c(-c3cn4cc(NC5=NC(C)(C)CO5)cnc4n3)c2)o1 [Compound 505]					5000	1170	845	3480	
CC(C)OC(=O)N(C)c1cnc2nc(-c3cc(N(C)C(=O)c4ccc(Cl)o4)ccc3F)cn2c1 [Compound 551, isopropyl (2-(5-(5-chloro-N-methylfuran-2-carboxamido)-2-fluorophenyl)imidazo[1,2-a]pyrimidin-6-yl)(methyl)carbamate]					3280	11000	9320	6940	
Cc1nc(C(=O)Nc2ccc(Cl)c(-c3cn4cc(NC(=O)OC(C)C)cnc4n3)c2)no1 [Compound 528]					> 20000	> 25000	6960	8940	
Cc1nc(C)c(C(=O)Nc2ccc(F)c(-c3cn4cc(NC(=O)C5(C#N)CC5)cnc4n3)c2)o1 [Compound 153]	3400	348	135	901					

Compound	EC50 ([1]; inhibition of proliferation) [nM]	EC50 [2, 5] [nM]	EC50 [3, 6] [nM]	EC50 ([4]; inhibition of proliferation) [nM]	EC50 [1] [nM]	EC50 ([2]; L. donovani axenic amastigotes) [nM]	EC50 [3, 7] [nM]	EC50 [4] [nM]	EC50 [3] [nM]
CC(C)OC(=O)Nc1cnc2nc(-c3cc(NC(N)=O)ccc3Cl)cn2c1 [Compound 252]	> 20000	> 25000	33000	> 50000					
CC(C)OC(=O)Nc1cnc2nc(-c3cc(NC(=O)CN4CCCC4)ccc3F)cn2c1 [Compound 110]	9590	> 25000	27700	8100					
O=C(Nc1ccc(F)c(-c2cn3cc(C(F)(F)F)cnc3n2)c1)N1CC(F)(F)C1 [Compound 300]	148	90	155	397					
CCC(C)C(=O)Nc1ccc(F)c(-c2cn3cc(NC(=O)OC(C)C)cnc3n2)c1 (stereo not drawn) [Compound 104]	1340	2390	1210	> 50000					
CN(C)C(=O)Nc1ccc(F)c(-c2cn3cc(-c4ccccc4)cnc3n2)c1 [Compound 323]	46	97	47	278					
Cc1ncc(C(=O)Nc2ccc(F)c(-c3cn4cc(N(C)C)cnc4n3)c2)o1 [Compound 467]					129	147	166	266	
Cc1ccc(-c2cnc3nc(-c4cc(NC(=O)c5oc(C)nc5C)ccc4F)cn3c2)nn1 [Compound 448]					798	108	157	5150	
Cc1nc(C)c(C(=O)Nc2ccc(F)c(-c3cn4cc(C5=CCCN(C)C5)cnc4n3)c2)o1 [Compound 375]					303	4300	135	499	
COCCOC(=O)Nc1cnc2nc(-c3cc(NC(=O)N4CCCC4)ccc3F)cn2c1 [Compound 313]	13300	761	502	> 50000					
Cc1nc(C)c(C(=O)Nc2ccc(F)c(-c3cn4cc(NC(=O)[C@@H]5[C@@H]6CCC(O6)[C@@H]5N)cnc4n3)c2)o1 [Compound 157]	> 20000	> 25000	31300	> 50000					
Cc1ncc(C(=O)Nc2ccc(F)c(-c3cn4cc(-c5ccccn5)cnc4n3)c2)o1 [Compound 198]	16	7	18	16					
Cc1ccc(C(=O)Nc2ccc(F)c(-c3cn4cc(NC(=O)OC(C)C)cnc4n3)c2)s1 [Compound 88]	1170	5370		19700					1180
Cc1nc(C)c(C(=O)Nc2ccc(F)c(-c3cn4cc(N5CCCC5)cnc4n3)c2)o1 [Compound 493]					31	260	40	192	
CC(C)c1cnc2nc(-c3cc(NC(=O)N4CC(F)(F)C4)ccc3F)cn2c1 [Compound 416]					47	30	41	93	
CC(C)OC(=O)Nc1cnc2nc(-c3cc(NC(=O)N(C(C)C)C(C)C)ccc3F)cn2c1 [Compound 228]	9990	> 25000	34500	19500					
Cc1nc(C)c(C(=O)Nc2ccc(F)c(-c3cn4cc(C5CCC5)cnc4n3)c2)o1 [Compound 210]	31	47	34	85					
CC(C)Nc1cnc2nc(-c3cc(NC(=O)N4CC(F)(F)C4)ccc3F)cn2c1 [Compound 460, 3,3-difluoro-N-(4-fluoro-3-(6-(isopropylamino)imidazo[1,2-a]pyrimidin-2-yl)phenyl)azetidine-1-carboxamide]					182	241	164	208	
COCCC(=O)Nc1cnc2nc(-c3cc(NC(=O)c4oc(C)nc4C)ccc3F)cn2c1 [Compound 166]	> 20000	2280	1010	> 46300					
Cc1nc(C)c(C(=O)Nc2ccc(F)c(-c3cn4cc(C#CCCN5CCCC(O)C5)cnc4n3)c2)o1 (stereo not drawn) [Compound 545]					7180	3900	3250	2130	
CC1(C(=O)Nc2cnc3nc(-c4cc(NC(=O)N5CCCC5)ccc4F)cn3c2)CC(F)(F)C1 [Compound 146]	> 20000	1050	236	7180					
CC(C)OC(=O)Nc1cnc2nc(-c3cc(NC(=O)c4ccc(Cl)s4)ccc3F)cn2c1 [Compound 66]	444	2810	1840	16100					

Reference: patent US20160045505A1, “COMPOUNDS AND COMPOSITIONS FOR THE TREATMENT OF PARASITIC DISEASES” (NOVARTIS AG, priority 2013, published 2016)
